Assay results taken from patent publication US20250289855A1, “ANTIMICROBIAL CaNCR PEPTIDE FOLDING VARIANTS” (Donald Danforth Plant Science Center, priority 2022, published 2025).
“And” between values parts separate entries of the source, which are not always exact repeats. Equal values may be shown once. Bridge positions count the residues as written; N and C are the ends. Ends that are not written are not given here.

Key:
Botrytis cinerea [1] = assay: Tomato fruit infection assay, drop inoculation; assay type: in vivo; settings: for visible fungal growth on tomato fruits: B. cinerea, 0.75 μM peptide applied 12 hpi, 3 dpi; for control of B. cinerea growth in tomato fruits: 0.75 μM peptide, 5 dpi
Protocol: Antifungal activity assays were performed on commercially available tomato fruits. A total of 36 tomato fruits (12 fruits per treatment) were washed with 0.01% bleach and rinsed three times with sterile distilled water. Carborundum Powder (Fisher Chemical, USA) was gently rubbed on the fruit surface to create microinjuries. The fruits were inoculated with 20 μl B. cinerea conidia (1×10^5 conidia ml-1) via drop inoculation. Conidia of B. cinerea were prepared as described above. Fruits were incubated in a Ziploc weather shield box containing moist paper towels to maintain high humidity after drop inoculation. 20 μl of peptide solution (0.75 μM of NCR13_PFV1 or NCR13_PFV2) was applied to the drop inoculated conidial suspension at 12 hours post-inoculation (hpi) and incubated for 5 days.

[2] = tested on: Sclerotinia sclerotiorum 555; assay: In vitro antifungal activity, 24-well plate mycelial plug assay; assay type: cell-based; settings: 2 dpi; for SFM MIC: Sclerotinia sclerotiorum 555
Protocol: Sclerotinia sclerotiorum (S. sclerotiorum) 555 fungal cultures were grown on potato dextrose agar (PDA) medium (Difco Laboratories Inc., Detroit, MI, USA) at room temperature.
The antifungal activity of NCR13_PFV1 against S. sclerotiorum 555 was measured in an in vitro assay using 24-wells plate assay. Mycelial plugs (1 mm in diameter) cut from the margin of two day-old actively growing colony were transferred from potato dextrose agar media to a series of wells containing 125 microliter (L) of 2×SFM medium (U.S. Pat. No. 6,916,970), with 125 μL of NCR13_PFV1 at varying concentrations of 3, 6, 12 and 24 μM. The plates were incubated at room temperature for 2 days prior to assessment. The mycelium diameter growth was measured 2 dpi using ImageJ software. NCR13 PFV1 peptide effects were calculated as a percentage from the difference between growth of the control and treated mycelium using the formula:
IG (%)=(Dc−Dt)/Dc×100; where IG is inhibition of growth, Dc is the mycelium diameter (mm) of the control and Dt is the mycelium diameter (mm) of the peptide-treated dishes.

Cercospora sojina [3] = assay: Microscopic observation of antifungal activity (light microscope, 20x); assay type: cell-based
Excerpt: (§1) The presence of germinating conidia/mycelial fragments was observed under a light microscope at 20× magnification. […] (FIG. 3A).

Alternaria alternata [4] = assay: as above; assay type: cell-based; settings: A. alternata; peptide at 3 μM
Excerpt: as §1

B. cinerea = assay: Semi-in planta drop-inoculation assay, gray mold on detached N. benthamiana leaves; assay type: in vivo, Botrytis cinerea; settings: for inhibition of gray mold disease symptoms: 3 μM
Excerpt: FIG. 4 depicts a drop-inoculation assay showing semi-in planta antifungal activity of NCR13_PFV1 and NCR13_PFV2 in detached N. benthemiana leaves.
In semi-in-planta studies, detached leaves of N. benthamiana, were used to check the potential of both NCR13_PFV1 and NCR13_PFV2 to reduce gray mold disease symptoms caused by B. cinerea (FIG. 4).

Alternaria alternata [5] = assay: Antifungal MIC, 96-well plate spectrophotometric / resazurin cell viability assay; assay type: cell-based; settings: Synthetic Fungal Medium
Protocol: (§2) The fungal strain of Botrytis cinerea T-4 was cultured in 20% V8 growth medium. Alternaria alternata was grown on potato dextrose agar. Fungal spores were harvested by flooding the fungal growth plates with sterile water. The spore suspension was filtered through two layers of Miracloth, centrifuged at 13,600 rpm for 1 min, washed, and re-suspended in low-salt Synthetic Fungal Medium (SFM) (U.S. Pat. No. 6,916,970). The spore suspension was adjusted to equivalent spore density using a hemocytometer.
Cercospora sojina and Alternaria alternata conidia were harvested from a fully grown culture plate by gently dislodging the conidia with an L-spreader in the presence of 5 ml sterile water. […]
Antifungal activity of NCR13_PFV1 and NCR13_PFV2 was assessed at different concentrations using a 2-fold dilution series of each peptide. Antifungal activity of each peptide was determined spectrophotometrically using the 96-well plate assay (Sagaram et al., (2011) PLoS One. doi: 10.1371/journal.pone.0018550; Sagaram et al., (2013). PLoS One. 2013 Dec. 4; 8(12):e82485. doi: 10.1371/journal.pone.0082485). […] The quantitative fungal growth inhibition was determined by measuring the absorbance at 595 nm using a microplate reader (Tecan Infinite M200 ProTecan Systems Inc., San Jose, CA) after 48 h. […]

Botrytis cinerea [6] = assay: as above; assay type: cell-based; settings: for SFM + 2 mM CaCl2 (antifungal activity/MIC): SFM supplemented with 2 mM CaCl2; for SM + 100 mM NaCl (antifungal activity/MIC): medium supplemented with 100 mM NaCl
Protocol: as §2
Antifungal activity of NCR13_PFV1 and NCR13_PFV2 was assessed at different concentrations using a 2-fold dilution series of each peptide. Antifungal activity of each peptide was determined spectrophotometrically using the 96-well plate assay (Sagaram et al., (2011) PLoS One. doi: 10.1371/journal.pone.0018550; Sagaram et al., (2013). PLoS One. 2013 Dec. 4; 8(12):e82485. doi: 10.1371/journal.pone.0082485). Forty-five microliters of each peptide at different concentrations was added to each well of the microtiter plate containing 45 μL of ˜10^5 spores/ml spore suspension. The quantitative fungal growth inhibition was determined by measuring the absorbance at 595 nm using a microplate reader (Tecan Infinite M200 ProTecan Systems Inc., San Jose, CA) after 48 h. The fungal cell viability was determined by the resazurin cell viability assay (Li et al., 2019, MPMI 32, 1649-1664; Velivelli et al., 2020, doi.org/10.1073/pnas.2003526117). After incubation of the pathogen/peptide mixture for 48 h, […] 0.1% resazurin solution was added to each well. After incubation of the mixture overnight, a change in the color of the resazurin dye from blue to pink or colorless indicated the presence of live fungal cells. The MIC for each peptide was the lowest concentration of each peptide at which no change in blue color occurred. Using this protocol, the MIC value of NCR13_PFV1 and NCR13_PFV2 was also determined in presence of 100 mM NaCl and 2 mM CaCl2).
The MIC of NCR13_PFV1 and NCR13_PFV2 against B. cinerea was determined (Table 3). MIC assays were carried out in 2×SFM. […] We therefore determined antifungal activity of NCR13_PFV1 and NCR13_PFV2 in SFM supplemented with 100 mM NaCl or 2 mM CaCl2) (Table 3).

Cercospora sojina [7] = assay: as above; assay type: cell-based; settings: Synthetic Fungal Medium
Protocol: Cercospora sojina and Alternaria alternata conidia were harvested from a fully grown culture plate by gently dislodging the conidia with an L-spreader in the presence of 5 ml sterile water. To remove mycelial fragments, the spore suspension was filtered through three layers of miracloth and washed twice with sterile water at 13,000 rpm for 2 minutes. The spore concentration was adjusted to 1×10^5 spores/ml using a hemocytometer.
Antifungal activity of NCR13_PFV1 and NCR13_PFV2 was assessed at different concentrations using a 2-fold dilution series of each peptide. Antifungal activity of each peptide was determined spectrophotometrically using the 96-well plate assay (Sagaram et al., (2011) PLoS One. doi: 10.1371/journal.pone.0018550; Sagaram et al., (2013). PLoS One. 2013 Dec. 4; 8(12):e82485. doi: 10.1371/journal.pone.0082485). Forty-five microliters of each peptide at different concentrations was added to each well of the microtiter plate containing 45 μL of ˜10^5 spores/ml spore suspension. The quantitative fungal growth inhibition was determined by measuring the absorbance at 595 nm using a microplate reader (Tecan Infinite M200 ProTecan Systems Inc., San Jose, CA) after 48 h. The fungal cell viability was determined by the resazurin cell viability assay (Li et al., 2019, MPMI 32, 1649-1664; Velivelli et al., 2020, doi.org/10.1073/pnas.2003526117). […]

S. sclerotiorum 555 [8] = assay: Semi-in planta antifungal assay on detached soybean leaves; assay type: in vivo, Sclerotinia sclerotiorum; settings: 2 dpi
Protocol: Representative pictures (under white light and with CropReporter based on the value of potential photosynthetic efficiency Fv/Fm) taken 48 h post-infection showing the antifungal activity of NCR13_PFV1.
(§3) For the semi-in planta antifungal assays, a 1 mm plug was taken from the leading edge of freshly cultured 2-day old fungal colony from PDA media and placed on approximately 3-4 weeks of age detached soybean leaves and pods (6 weeks of age). Then, 40 μL solution of NCR13_PFV1 at various concentrations or water was applied immediately on the plug and were allowed to incubate under high humidity for 2-3 days prior to assessment. The severity of disease lesions on each leaf was assessed using the CropReporter system as described in Li et al. Mol Plant Microbe Interact. 2019; 32:1649-1664. doi: 10.1094/MPMI-08-19-0224-R. Epub 2019 Oct. 28. PMID: 31425003. In addition, high-resolution fluorescence images were taken using CropReporter (PhenoVation, Wageningen, Netherlands).

S. sclerotiorum 555 [9] = assay: Semi-in planta antifungal assay on detached soybean pods; assay type: in vivo, Sclerotinia sclerotiorum; settings: 3 dpi
Protocol: Representative pictures taken 72 h post-infection showing the antifungal activity of NCR13_PFV1.
as §3
Detached soybean pods from 6-week-old plants were infected with 1 mm plug of S. sclerotiorum 555 followed by the application of a drop of NCR13_PFV1 on the plug. […] We observed that NCR13_PFV1 confers fungicidal activity with 100% protection against S. sclerotiorum 555 at 3 dpi (FIG. 6).

Substance | visible fungal growth on tomato fruits (Botrytis cinerea [1]) | SFM MIC [2] | concentration at which C. sojina growth was inhibited (microscopy) (Cercospora sojina [3]) [µM] | fold higher inhibitory concentration versus the other folding variant (Cercospora sojina [3]; C. sojina) | conidial germination / mycelial growth under the microscope (Alternaria alternata [4]) | inhibition of gray mold disease symptoms (B. cinerea) | SFM MIC (Alternaria alternata [5]) | SFM + 2 mM CaCl2 (antifungal activity/MIC) (Botrytis cinerea [6]) | SFM MIC (Botrytis cinerea [6]; Synthetic Fungal Medium, 48 h, resazurin) [µM] | SM + 100 mM NaCl (antifungal activity/MIC) (Botrytis cinerea [6]) | SFM MIC (Cercospora sojina [7]) [µM] | control of B. cinerea growth in tomato fruits (Botrytis cinerea [1]) | control of B. cinerea growth in tomato fruits (Botrytis cinerea [1]; listed as NCR13 PFV1) | lesion size (S. sclerotiorum 555 [8]) | protection against S. sclerotiorum 555 (S. sclerotiorum 555 [9]) [%] | lesion or decay development (S. sclerotiorum 555 [9]; compared to water control) | S. sclerotiorum 555 mycelial growth in vitro ([2]; 3, 6, 12 and 24 μM) | activity against gray mold disease relative to NCR13_PFV2 (B. cinerea) | antifungal activity of NCR13_PFV1 relative to NCR13_PFV2 (from MIC) (Botrytis cinerea [6])
NCR13_PFV2: NCR13-Ala peptide (SEQ ID NO: 2) expressed in Pichia pastoris, HPLC Peak2 folding variant (ATKPCQSDKDCKKFACRKPKVPKCINGFCKCVR; not fully specified; cysteine pairing not given here) | visible fungal growth | 24.0 µM | 3 | ~17 | significant mycelial growth | only partially inhibitory | 3 µM and 3.0 µM | Inactive | 1.5 | Inactive | 1.5 |  |  |  |  |  |  |  | 
NCR13_PFV1: NCR13-Ala peptide (SEQ ID NO: 2) expressed in Pichia pastoris, HPLC Peak1 folding variant (ATKPCQSDKDCKKFACRKPKVPKCINGFCKCVR; disulfide 11-29, 16-31, 5-24) | no visible fungal growth | 6 µM and 6.0 µM | 0.18 |  | complete inhibition of conidial germination | completely inhibitory | 0.75 µM | Inactive |  | Inactive |  | effective in controlling B. cinerea fungal growth | effective | significantly decreased lesion sizes | 100 | no lesion or decay development | progressively reduced in size with increasing concentrations | two-fold higher activity | fourfold or greater
